According to patent US20140024638A1, “TREATMENT OF COGNITIVE DYSFUNCTION IN SCHIZOPHRENIA” (TARGACEPT, INC., priority 2011, published 2014):

Tests used:
[1] = tested on: patients with schizophrenia; test: CogState Detection task (psychomotor speed), Phase 2 trial; format: in vivo, human; settings: for CogState Detection: Mean (SE): tobacco users meeting data integrity criteria; for CogState Detection: Mean (SEM): total population, subjects meeting data integrity criteria
Method: (§1) The double blind, placebo controlled Phase 2 trial was conducted at 7 sites in the United States and 12 sites in India. […] Of the randomized patients, approximately 69% were male and approximately 46% were users of tobacco products. […] The primary efficacy outcome measure was GMLT, and the trial included a number of other scales as secondary efficacy outcome measures.

[2] = tested on: patients with schizophrenia; test: Phase 2 clinical proof of concept trial, overall efficacy; format: in vivo, human; settings: Phase 2 trial
Method: as §1
The GMLT is a computerized test designed to assess executive function (the ability to organize cognitive processes, including the ability to plan, prioritize, stop and start activities, shift from one activity to another activity and to monitor one's own behavior). Impaired executive function is thought to be an important aspect of cognitive dysfunction in schizophrenia.

[3] = in vivo; cited from earlier work
[4] = tested on: patients with schizophrenia; test: CogState Social-Emotional Cognition task, Phase 2 trial; format: in vivo, human; settings: for CogState Social-Emotional Cognition: Mean (SE): tobacco users meeting data integrity criteria; for CogState Social-Emotional Cognition: Mean (SEM): total population, subjects meeting data integrity criteria
Method: as §1

[5] = water solubility (salt screening); format: physicochemical
[6] = tested on: patients with schizophrenia; test: CogState International Shopping List (verbal learning), Phase 2 trial; parameters: species or system human; settings: in vivo
Method: as §1

[7] = tested on: patients with schizophrenia; test: CogState 1-Card Learning task (visual learning), Phase 2 trial; format: in vivo, human; settings: for CogState 1-Card Learning: Mean (SE): tobacco users meeting data integrity criteria; for CogState 1-Card Learning: Mean (SEM): total population, subjects meeting data integrity criteria
Method: as §1

[8] = tested on: patients with schizophrenia; test: Scale for Assessment of Negative Symptoms (SANS), Phase 2 trial; format: in vivo, human; settings: for SANS TOTAL SCORE: Adjusted Mean / SANS TOTAL SCORE: Mean Difference ± SE between TC-5619 and Placebo (Placebo-TC5619): All Patients; for SANS: Mean (SE): tobacco users; for SANS: Mean (SEM): total population
Method: as §1

[9] = in vivo; cited from earlier work; remark: listed apart in the source
[10] = tested on: patients with schizophrenia; test: Subject Global Impression - Cognition scale (SGI-Cog), Phase 2 trial; format: in vivo, human; settings: for SGI-COGNITION TOTAL BY PATIENT: Adjusted Mean / SGI-COGNITION TOTAL BY PATIENT: Mean Difference ± SE between TC-5619 and Placebo (Placebo-TC5619): All Patients; for SGI-Cog: Mean (SE): tobacco users; for SGI-Cog: Mean (SEM): total population
Method: as §1

[11] = Week 8, 5 mg daily, 1-tailed p = 0.491

For O=C(N[C@@H]1C2CCN(CC2)[C@H]1Cc1cccnc1)c1cc2ccccc2o1 (single isomer, unassigned) [TC-5619], which “CogState detection (psychomotor speed), result in words” value ([1]; in vivo) is on record?
The value was “statistically significant results of improvement”.

What about the “CogState Detection: Mean (SE)” value ([1]; Week 4, 1 mg daily, 1-tailed p = 0.254) of the same molecule?
The value was −0.014 (0.021); p = 0.254.

And the “CogState Detection: Mean (SE)” value [1, 11]?
The value was −0.000 (0.021); p = 0.491.

What about the “CogState Detection: Mean (SE)” value ([1]; Week 12, 25 mg daily, 1-tailed p = 0.265) of the same molecule?
The value was −0.013 0.021); p = 0.265 ^.

What about the “CogState Detection: Mean (SEM)” value ([1]; Week 4, 1 mg daily, 1-tailed p = 0.693) of the same molecule?
Its value is 0.007 (0.015); p = 0.693.

What about the “CogState Detection: Mean (SEM)” value ([1]; Week 8, 5 mg daily, 1-tailed p = 0.650) of the same molecule?
The value was 0.006 (0.014) p = 0.650^.

What about the “CogState Detection: Mean (SEM)” value ([1]; Week 12, 25 mg daily, 1-tailed p = 0.567) of the same molecule?
The value was 0.002 (0.015) p = 0.567^.

What about the “efficacy by tobacco use” value [2] of the same molecule?
Its value is “showed efficacy primarily in tobacco users”.

And the “efficacy in Cognitive Deficits in Schizophrenia (GMLT, SANS, CGI-Global, SGI-Cog, CogState objective cognitive endpoints)” value ([2]; add-on to quetiapine or risperidone, 12 weeks, 1/5/25 mg daily)?
Its value is “positive efficacy”.

What about the “efficacy in preclinical models of memory” value [3] of the same molecule?
Its value is “had efficacy”.

And the “CogState Social-Emotional Cognition: Mean (SE)” value ([4]; Week 4, 1 mg daily, 1-tailed p = 0.632)?
Its value is −0.010 (0.028); p = 0.632.

And the “CogState Social-Emotional Cognition: Mean (SE)” value ([4]; Week 8, 5 mg daily, 1-tailed p = 0.625)?
The value was −0.009 (0.029); p = 0.625.

What about the “CogState Social-Emotional Cognition: Mean (SE)” value ([4]; Week 12, 25 mg daily, 1-tailed p = 0.752) of the same molecule?
Its value is −0.019 (0.027); p = 0.752.

And the “CogState Social-Emotional Cognition: Mean (SEM)” value ([4]; Week 4, 1 mg daily, 1-tailed p = 0.259)?
Its value is 0.013 (0.020); p = 0.259.

What about the “CogState Social-Emotional Cognition: Mean (SEM)” value ([4]; Week 8, 5 mg daily, 1-tailed p = 0.217) of the same molecule?
Its value is 0.015 (0.020); p = 0.217.

And the “CogState Social-Emotional Cognition: Mean (SEM)” value ([4]; Week 12, 25 mg daily, 1-tailed p = 0.546)?
The value was −0.002 (0.020); p = 0.546.

And the water solubility [5]?
The water solubility was “very limited”.

What about the “CogState International Shopping List (verbal learning), result in words” value [6] of the same molecule?
The value was “statistically significant results of improvement”.

What about the “CogState 1-card learning (visual learning), result in words” value ([7]; in vivo) of the same molecule?
The value was “statistically significant results of improvement”.

What about the “CogState 1-Card Learning: Mean (SE)” value ([7]; Week 4, 1 mg daily, 1-tailed p = 0.615) of the same molecule?
The value was −0.008 (0.027); p = 0.615.

And the “CogState 1-Card Learning: Mean (SE)” value ([7]; Week 8, 5 mg daily, 1-tailed p = 0.778)?
Its value is −0.021; 0.028); p = 0.778.

What about the “CogState 1-Card Learning: Mean (SE)” value ([7]; Week 12, 25 mg daily, 1-tailed p = 0.338) of the same molecule?
Its value is 0.012 (0.028); p = 0.338.

What about the “CogState 1-Card Learning: Mean (SEM)” value ([7]; Week 4, 1 mg daily, 1-tailed P = 0.660) of the same molecule?
The value was −0.008 (0.019); P = 0.660 ^.

What about the “CogState 1-Card Learning: Mean (SEM)” value ([7]; Week 8, 5 mg daily, 1-tailed P = 0.899) of the same molecule?
The value was −0.024 (0.019); P = 0.899 ^.

And the “CogState 1-Card Learning: Mean (SEM)” value ([7]; Week 12, 25 mg daily, 1-tailed P = 0.841)?
The value was −0.019 (0.020); P = 0.841 ^.

And the “SANS TOTAL SCORE: Adjusted Mean” value ([8]; Week 1, 1 mg daily, SE 0.93, placebo −0.92)?
Its value is −1.20.

And the “SANS TOTAL SCORE: Mean Difference ± SE between TC-5619 and Placebo (Placebo-TC5619)” value ([8]; Week 1, 1 mg daily, one-sided 90% CI (−0.77, ∞), one-sided P 0.3647)?
Its value is 0.28 ± 0.82.

What about the “SANS TOTAL SCORE: Adjusted Mean” value ([8]; Week 4, 1 mg daily, SE 1.11, placebo −2.74) of the same molecule?
Its value is −3.52.

What about the “SANS TOTAL SCORE: Mean Difference ± SE between TC-5619 and Placebo (Placebo-TC5619)” value ([8]; Week 4, 1 mg daily, one-sided 90% CI (−0.74, ∞), one-sided P 0.2547) of the same molecule?
Its value is 0.78 ± 1.18.

And the “SANS TOTAL SCORE: Adjusted Mean” value ([8]; Week 8, 5 mg daily, SE 1.25, placebo −5.55)?
Its value is −7.25.

What about the “SANS TOTAL SCORE: Mean Difference ± SE between TC-5619 and Placebo (Placebo-TC5619)” value ([8]; Week 8, 5 mg daily, one-sided 90% CI (−0.14, ∞), one-sided P 0.1184) of the same molecule?
The value was 1.71 ± 1.44.

What about the “SANS TOTAL SCORE: Adjusted Mean” value ([8]; Week 12, 25 mg daily, SE 1.40, placebo −6.23) of the same molecule?
The value was −9.93.

And the “SANS TOTAL SCORE: Mean Difference ± SE between TC-5619 and Placebo (Placebo-TC5619)” value ([8]; Week 12, 25 mg daily, one-sided 90% CI (1.53, ∞), one-sided P 0.0147)?
Its value is 3.70 ± 1.68.

And the “SANS, result in words” value ([8]; secondary outcome measure, investigator assessment of negative symptoms)?
Its value is “encouraging efficacy signals”.

And the “SANS: Mean (SE)” value ([8]; Week 4, 1 mg daily, 1-tailed p = 0.098)?
Its value is 2.74 (2.10); p = 0.098.

What about the “SANS: Mean (SE)” value ([8]; Week 8, 5 mg daily, 1-tailed p = 0.054) of the same molecule?
The value was 4.00 (2.45); p = 0.054.

What about the “SANS: Mean (SE)” value ([8]; Week 12, 25 mg daily, 1-tailed p = 0.033) of the same molecule?
The value was 4.86 (2.58); p = 0.033.

What about the “SANS: Mean (SEM)” value ([8]; Week 4, 1 mg daily, 1-tailed p = 0.255) of the same molecule?
Its value is 0.78 (1.18); p = 0.255.

What about the “SANS: Mean (SEM)” value ([8]; Week 8, 5 mg daily, 1-tailed p = 0.118) of the same molecule?
The value was 1.71 (1.44); p = 0.118.

What about the “SANS: Mean (SEM)” value ([8]; Week 12, 25 mg daily, 1-tailed p = 0.015) of the same molecule?
Its value is 3.70 (1.68); p = 0.015.

And the “efficacy in preclinical models of schizophrenia” value [9]?
The value was “effective”.

What about the “SGI-COGNITION TOTAL BY PATIENT: Adjusted Mean” value ([10]; Week 1, 1 mg daily, SE 0.19, placebo 11.37) of the same molecule?
The value was 11.18.

What about the “SGI-COGNITION TOTAL BY PATIENT: Mean Difference ± SE between TC-5619 and Placebo (Placebo-TC5619)” value ([10]; Week 1, 1 mg daily, one-sided 90% CI (−0.07, ∞), one-sided P 0.1757) of the same molecule?
The value was 0.19 ± 0.20.

And the “SGI-COGNITION TOTAL BY PATIENT: Adjusted Mean” value ([10]; Week 4, 1 mg daily, SE 0.24, placebo 10.65)?
The value was 10.60.

And the “SGI-COGNITION TOTAL BY PATIENT: Mean Difference ± SE between TC-5619 and Placebo (Placebo-TC5619)” value ([10]; Week 4, 1 mg daily, one-sided 90% CI (−0.31, ∞), one-sided P 0.4282)?
Its value is 0.05 ± 0.28.

What about the “SGI-COGNITION TOTAL BY PATIENT: Adjusted Mean” value ([10]; Week 8, 5 mg daily, SE 0.29, placebo 9.80) of the same molecule?
The value was 9.79.

And the “SGI-COGNITION TOTAL BY PATIENT: Mean Difference ± SE between TC-5619 and Placebo (Placebo-TC5619)” value ([10]; Week 8, 5 mg daily, one-sided 90% CI (−0.45, ∞), one-sided P 0.4914)?
Its value is 0.01 ± 0.36.

What about the “SGI-COGNITION TOTAL BY PATIENT: Adjusted Mean” value ([10]; Week 12, 25 mg daily, SE 0.31, placebo 9.61) of the same molecule?
Its value is 8.95.

What about the “SGI-COGNITION TOTAL BY PATIENT: Mean Difference ± SE between TC-5619 and Placebo (Placebo-TC5619)” value ([10]; Week 12, 25 mg daily, one-sided 90% CI (−0.16, ∞), one-sided P 0.0455) of the same molecule?
The value was 0.66 ± 0.39.

And the “Subject Global Impression - Cognition scale, result in words” value ([10]; secondary outcome measure, patient self-assessment of cognitive change)?
The value was “encouraging efficacy signals”.

What about the “SGI-Cog: Mean (SE)” value ([10]; Week 4, 1 mg daily, 1-tailed p = 0.606) of the same molecule?
The value was −0.13 (0.47); p = 0.606.

What about the “SGI-Cog: Mean (SE)” value ([10]; Week 8, 5 mg daily, 1-tailed p = 0.314) of the same molecule?
The value was 0.24 (0.49); p = 0.314.

And the “SGI-Cog: Mean (SE)” value ([10]; Week 12, 25 mg daily, 1-tailed p = 0.109)?
The value was 0.65 (0.52); p = 0.109.

What about the “SGI-Cog: Mean (SEM)” value ([10]; Week 4, 1 mg daily, 1-tailed p = 0.428) of the same molecule?
Its value is 0.05 (0.28); p = 0.428.

What about the “SGI-Cog: Mean (SEM)” value [10, 11] of the same molecule?
The value was 0.01 (0.36); p = 0.491.
